Data published in patent US8652442B2, “Bioluminescence imaging of myeloperoxidase activity in vivo, methods, compositions and apparatuses therefor” (Washington University, priority 2008, dated 2014).
Read-outs that look alike come from different tables or passages of the source.

Legend:
MPO activity [1] = conditions: mouse, in vivo
Description: MPO^−/− (n=5) or control MPO^+/+ (n=5) mice were briefly anaesthetized (isoflurane inhalation) and LPS (20 μg in 20 μL PBS) or vehicle (PBS, 20 μL) were injected into the left or right ankles, respectively, using a 30-gauge needle. Mice were administered luminol (as above) and imaged immediately after LPS administration under anesthesia (isoflurane inhalation), as well as 1, 2, 3, 4 and 5 days later (exposure time, 180 sec; binning, 4; FOV, 10 cm). ROIs were manually selected over the left and right feet (LPS-treated and untreated, respectively) and over the proximal part of the tail (background). Data were expressed as (LPS—background)/(vehicle—background)±s.e.m.
We next imaged MPO activity in a focal arthritis model. […] LPS was injected to the joints of the left lower limbs of wild type MPO^+/+ (FIG. 3b, left panel, n=5) or MPO^−/− mice (FIG. 3b, right panel, n=5). Vehicle (PBS) was injected into the joints of the right lower limbs. At t=0 (before LPS injection), 24, 48, 72, 96 and 120 h, luminol was administered (200 mg/kg BW, i.p.) and mice were imaged.

MPO [2] = biological target: T1, MPO (Homo sapiens, UniProt P05164)
Description: Matrigel was used to immobilize human MPO and/or GOX (that produces H2O2) in vivo (Chen, J. W., et al., Radiology 240, 473-481, 2006). Briefly, GOX (30 U), MPO (20 U), vehicle (PBS) or GOX+MPO (30 and 20 U, respectively) were added to Matrigel (200 μL) at 4° C. The four different mixtures were injected subcutaneously into different locations on the back of NCr nu/nu mice. Thirty minutes later, mice were anesthetized (isoflurane inhalation), administered luminol (200 mg/kg BW, i.p.) and imaged sequentially (exposure time, 60 sec; binning, 4; FOV, 7.5 cm) every 5 minutes up to one hour. Regions of interest (ROI) were manually selected over the four implants and total photon emissions from each implant were plotted as a function of time.
We next determined the biochemical requirements and pharmacokinetics of luminol-BL in an intact animal and whether MPO activity could be imaged in vivo. […] We embedded GOX (30 U), MPO (20 U); MPO+GOX (same concentrations) or vehicle (PBS) in Matrigel solution and established subcutaneous implants of these mixtures on the backs of NCR nu/nu mice (n=3, FIG. 2a).
Photon fluxes were determined from ROI's, manually drawn over the different implants and plotted as a function of time.

[3] = systemic administration; cited from earlier work
purified MPO = biological target: T2, purified MPO (Homo sapiens, UniProt P05164); assay: Output of LGTR and luminol in vitro with purified MPO and H2O2; assay type: biochemical; conditions: for light output: purified MPO mixed with 100% serum rather than MEBSS
T2 construct: purchased Calbiochem
Source text: To analyze the output of LGTR and luminol in vitro, […] of each were mixed with purified MPO (5 mU) and vehicle (MEBSS).

MPO activity [4] = conditions: 24 h after DNFB, luminol 200 mg/kg BW i.p.
Description: Briefly, murine anti-DNP IgE (20 μg in 100 μl, Sigma-Aldrich) was injected intravenously into 13 MPO^+/+ and 9 MPO^−/− mice. One control mouse of each genetic MPO background was injected with vehicle (saline) only. Twenty-four hours later, all left ears were painted with DNFB (0.2% in acetone:olive oil, 1:3) and all right ears were painted with vehicle (acetone:olive oil, 1:3). On the next day, all mice were imaged following luminol administration (200 mg/kg BW, i.p.). Mice were euthanized immediately after imaging and histological specimens were prepared from both left and right ears by fixation with paraformaldehyde (4%), de-calcification (24 h in 14% EDTA), paraffin-embedding, sectioning (5 μm) and staining with H&E. For each condition, eosinophils were counted in 5 HPF (magnification ×400).
Eosinophil-dominant recruitment and activation was induced by passive immunization against DNP followed by topical challenge with DNFB (Ray, M., et al., J. Immunol. 131, 1096-1102, 1983) in both MPO+/+ control as well as MPO^−/− mice. […] Acute allergic dermatitis was induced by passive immunization with anti-DNP IgE and topical challenge with DNFB on the left ear lobes of MPO^+/+ (n=14) and MPO^−/− (n=10) mice. Right ears served as vehicle controls and mice challenged with DNFB, but not anti-DNP IgE, served as negative controls. […]

MPO activity [5] = conditions: mouse, in vivo; remark: listed apart in the source
Description: GzB→Tax mice were monitored for tumorigenesis on ears, limbs and tails by visual examination and palpation, weekly, for 200-300 days after birth. Ten mice with visible tumors at various sizes (1-8 mm in diameter) and locations were administered luminol (200 mg/kg BW, i.p.) and imaged (exposure time, 300 sec; binning, 4; FOV, 10 cm) under anesthesia (isoflurane inhalation). Tumors were excised, fixed in paraformaldehyde (4%), paraffin-embedded, sectioned (5 μm) and stained with H&E or immuno-stained for MPO (see below).
We next used BLI to examine tumor-bearing GzB→Tax mice after intraperitoneal administration of luminol (200 mg/kg BW, i.p., FIG. 5 c-g).

[6] = test system: PMA-stimulated whole blood
Description: Blood was freshly drawn (100-300 μL, by jugular puncture) from MPO^−/− or control MPO^+/+ mice. Blood was stored for up to 6 h in heparinized tubes at room temperature. Ex vivo BLI experiments using whole blood were performed in black-coated 96-well plates. Briefly, 1 μL of blood was diluted in 200 μL of MEBSS supplemented with luminol (100 μM), in the absence or presence of increasing concentrations of 4-ABAFT (0-6.6 mM), L-NMMA (1 mM) or DPI (10 μM). Samples were imaged (exposure time, 60 sec; binning, 4; FOV, 10 cm; open filter) before (t=0) and at the indicated time points after stimulation with PMA (5 μM) or vehicle (DMSO, 1 μL). Photon fluxes±s.e.m. were plotted as a function of time post PMA (min) or concentration of inhibitor.
Luminol-oxidation can be visualized by bioluminescence imaging and is dependent on MPO activity in vitro. Luminol-dependent BL of stimulated phagocytes and whole blood has been extensively studied using photo-multiplier tube (PMT)-based luminometers. To determine whether BLI could be similarly used to detect oxidant production in biological material, we used a charge-coupled device (CCD)-based bioluminescence imaging system to monitor phagocyte activation in heparinized whole blood (1 μL). Fresh heparinized whole blood (1 μL) was incubated with luminol (100 μM) in MEBSS (200 μL). […] Images show sequential color-coded maps of photon flux superimposed on black & white photographs of the assay plates (FIG. 1b).
It is important to note that metals such as iron are highly abundant in blood, but are confined to specific cellular compartments, i.e., hemoglobin in erythrocytes or cytochromes in mitochondrial membranes. […] At t=0, PMA was added to a final concentration of 5 μM and BL was monitored for 60 min at 7.5 min intervals.
To determine the relative contribution of other ROS to the BL signal induced by luminol in stimulated blood ex vivo, we focused on two enzymatically-catalyzed ROS products, O2.- and NO., generated by the Phox complex and nitric oxide synthase (NOS), respectively, as well as their reaction product, peroxynitrite (ONOO^−). Freshly-drawn blood (1 μL) from an MPO^+/+ mouse was incubated with the NOS inhibitor L-NMMA (1 mM) or the Phox inhibitor DPI (10 μM), respectively, and imaged 20 min after stimulation with PMA (5 μM).

MPO activity [7] = conditions: mouse, in vivo; remark: listed apart in the source
Description: To induce acute skin inflammation (Fretland, D. J. et al. Inflammation 19, 333-346, 1995), PMA (100 μM, 20 μL) or vehicle (ethanol) were applied topically (left and right ear, respectively) on the inner and outer surface of the earlobe of MPO^−/− (n=5) or control (n=5) mice. Twenty-four and 48 hours later, luminol was administered (200 mg/kg BW, i.p.) and 10 min later mice were imaged (exposure time, 180 see; binning, 4; FOV, 7.5 cm) under anesthesia (isoflurane inhalation). ROI's were manually selected over the left and right ear lobes (PMA-treated and untreated, respectively) and over the central part of the skull (background). Data were expressed as (PMA—background)/(vehicle—background)±s.e.m.
Topical application of PMA onto the earlobes of mice induces acute dermatitis, manifested by local swelling, erythema and infiltration of neutrophils. […] We therefore used this model for assessment of MPO activity by luminol-BLI in both MPO^+/+ and MPO^−/− mice. Acute dermatitis was generated by topical application of PMA on the left ear lobe of MPO^+/+ or MPO^−/− mice (shown are three representative mice for each genetic background, n=5 for each). Twenty-four hours after topical application of PMA, mice were imaged (FIG. 3a) following the administration of luminol (200 mg/kg BW, i.p.).

human blood = assay: Ex vivo BLI of LGTR and luminol in human whole blood after PMA stimulation; assay type: cell-based
Description: For analysis of LGTR in whole blood, human blood was freshly drawn from a volunteer (by venous puncture). Blood was stored for up to 6 h in heparinized tubes at room temperature. Ex vivo BLI experiments using whole blood were performed in black-coated 96-well plates. Briefly, 200 μL of blood was added to the wells. LGTR, luminol, or DMSO ([…] of each) were added to the wells. Samples were imaged (exposure time, 160 sec; binning, 8; FOV, 10 cm; open filter or >590 nm) before (t=0) and at the indicated time points after stimulation with PMA (5 μM) or vehicle (ethanol, 1 μL). Photon fluxes±s.e.m. were plotted as a function of time post PMA (min) (FIG. 19). […] In addition, to isolate the buffy coat (white cells), whole blood was centrifuged at 700 rpm for 8 min, and subjected to the same analysis.

MPO activity [8] = assay: BLI of allergic contact hypersensitivity with topical LGTR or luminol, optical filter sets; assay type: in vivo, mice
Description: Thirty min later, mice were simultaneously imaged in the IVIS 100 imaging system (FOV, 10 cm; binning, 8; acquisition time, 300 sec; f/stop, 1) using four different optical filter sets in rapid sequence: 1) no filter, 2) <510 nm filter, 3) >590 nm filter, and 4) >650 nm filter (FIG. 22, FIG. 23). The photon flux as a percentage of an open filter was compared for both compounds (FIG. 23).
Briefly, murine anti-DNP IgE (20 μg, 100 μl) was intravenously injected to two C57/B mice.
Administration of luminol derivatives and imaging: Forty-eight hours post DNFB treatment, luminol-glycine Texas Red (LGTR, 1 mM in DMSO, left mouse) or luminol (1 mM In DMSO, right mouse) were applied topically (45 μl per ear) on both left and right ears. Thirty minutes later, mice were simultaneously imaged using the IVIS 100 imaging system (FOV 10 cm; binning, 8; acquisition time. 300 sec; f/stop, 1) using four different optical filler sets: (1) no filter, (2)<510 nm filler, (3)>590 nm filter and (4)>650 nm filter.

MPO [9] = biological target: T1, MPO; assay: Dye stability: absorption spectra after treatment with H2O2 and MPO; assay type: physicochemical; parameters: purchased Calbiochem; conditions: H2O2 and MPO in Tris buffer, 30, 60 and 90 min
Description: In these experiments, absorption spectra were collected for Texas Red (TXR) and Infrared Dye 820 (IRD) treated with H2O2 and MPO (5 mU) in Tris buffer solution for 30 min, 60 min and 90 min as indicated. […] In these experiments, absorption spectra were collected (RLU vs nm wavelength) of Texas Red (TXR) and Infrared Dye 820 (IRD) treated with H2O2 and MPO ([…]) in Tris buffer solution for 30 min, 60 min and 90 min as indicated. (FIG. 17). […] (FIG. 18). […] Thus, in vitro NIR bioluminescence can be used to study dye and fluorophore stability under various experimental conditions. […]

[10] = whole blood 1 μL, luminol 100 μM, PMA 5 μM

T2 sequence (P05164 279-745 limits assumed): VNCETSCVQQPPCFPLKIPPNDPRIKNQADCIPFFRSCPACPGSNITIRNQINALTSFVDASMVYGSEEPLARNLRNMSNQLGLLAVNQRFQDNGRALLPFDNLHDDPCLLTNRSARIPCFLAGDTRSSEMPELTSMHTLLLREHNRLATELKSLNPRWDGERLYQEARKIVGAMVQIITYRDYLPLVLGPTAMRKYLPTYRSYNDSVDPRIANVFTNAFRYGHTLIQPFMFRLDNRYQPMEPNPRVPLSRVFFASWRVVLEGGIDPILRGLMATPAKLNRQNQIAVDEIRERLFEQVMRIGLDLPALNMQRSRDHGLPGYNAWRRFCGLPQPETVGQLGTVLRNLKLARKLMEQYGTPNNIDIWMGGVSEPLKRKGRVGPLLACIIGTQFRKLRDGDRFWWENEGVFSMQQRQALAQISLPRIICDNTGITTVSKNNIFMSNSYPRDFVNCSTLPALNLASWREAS
T2 sequence (P05164 165-273 limits assumed): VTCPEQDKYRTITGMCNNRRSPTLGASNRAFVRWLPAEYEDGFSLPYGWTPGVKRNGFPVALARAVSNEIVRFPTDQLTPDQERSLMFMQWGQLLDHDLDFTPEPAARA
T1 sequence (P05164 279-745 limits assumed): as the sequence (P05164 279-745 limits assumed) above
T1 sequence (P05164 165-273 limits assumed): as the sequence (P05164 165-273 limits assumed) above

Nc1cccc2c(=O)[nH][nH]c(=O)c12 [luminol, 5-amino-2,3-dihydro-1,4-phthalazine-dione]
BL signal over background (MPO activity [1]): 10 to 15 fold
luminol-BL from LPS- or vehicle-treated joints (MPO activity [1]): negligible
peak BL emission, fold over vehicle-treated foot (MPO activity [1]): 25 to 30 fold
signal-to-background ratio for luminol-BLI (MPO [2]; MPO+GOX Matrigel implants in vivo): exceeded 3000
absorption upon i.p. injection (MPO [2]; luminol 200 mg/kg BW i.p.): rapidly absorbed
time to maximum BL after injection (MPO [2]; luminol 200 mg/kg BW i.p., MPO+GOX implant, NCr nu/nu mice): 10 min
absorption and excretion [3]: well absorbed and rapidly excreted
toxicity [3]: relatively non-toxic
light output (purified MPO): no light output
luminol-BL signal from inflamed ears (MPO activity [4]; MPO+/+ mice): substantial luminol-BL
luminol-BL signal from inflamed ears (MPO activity [4]; MPO−/− mice): no significant luminol-BL signal
localization of luminol-BL in tumor-bearing mice (MPO activity [5]): colocalized with foci of tumorigenesis
signal-to-background ratio ([6]; few thousand phagocytes in 1 μL whole blood): > 30
luminol-BL with whole blood of MPO−/− mice ([6]; luminol 100 μM, PMA 5 μM, 0-55 min): undetectable
peak BL over background values [6, 10]: 30-40 fold
time of BL peak post stimulation [6, 10]: 20 to 25 min
BL of PMA-treated ears over vehicle-treated ears (MPO activity [7]): 1.9±0.5 fold
background-normalized BL of PMA-treated ears over vehicle-treated ears (MPO activity [7]): 13.1±0.2 fold
photon output compared (human blood; human whole blood following PMA stimulation): exceeded LGTR

O=C(CCCCCNS(=O)(=O)c1ccc(C2=c3cc4c5c(c3Oc3c2cc2c6c3CCCN6CCC2)CCC[N+]=5CCC4)c(S(=O)(=O)[O-])c1)NCC(=O)Nc1cccc2c(=O)[nH][nH]c(=O)c12 [LGTR]
percent of the signal greater than 590 nm (red spectrum) (purified MPO; purified MPO 5 mU in MEBSS buffer, H2O2 50 μM): ~75%
brightness compared with luminol (purified MPO; purified MPO in MEBSS buffer): brighter than luminol
light output (purified MPO): no light output
BL after induction of acute contact hypersensitivity (MPO activity [8]; MPO+/+ mice, 1 mM in DMSO topical, 45 μl per ear): substantial LGTR-BL
photon flux compared with luminol (MPO activity [8]; filters >590 and 650 nm, topical 1 mM in DMSO): 3-4 fold
signal over the luminol signals (human blood; early time points in whole blood): greater than 75%
fraction of signal that was red (>590 nm) (human blood; human whole blood, 12 min post PMA stimulation): greater than 75%

CN=C(N)NCCC[C@H](N)C(=O)O.O=C(O)CC(O)(CC(=O)O)C(=O)O [L-NMMA, L-N^G-monomethyl arginine citrate]
effect on luminol-dependent BL ([6]; L-NMMA 1 mM, MPO+/+ mouse blood, imaged 20 min after PMA 5 μM): did not cause a significant reduction

NCC(=O)Nc1cccc2c(=O)[nH][nH]c(=O)c12 [luminol-glycine, 2-Amino-N-(1,4-dioxo-1,2,3,4-tetrahydrophthalazine-5-yl)acetamide]
signal generated (purified MPO; control compound, purified MPO): no signal

c1ccc2c(c1)[I+]c1ccccc1-2 [DPI, diphenyleneiodonium]
effect on PMA-induced BL ([6]; DPI 10 μM, MPO+/+ mouse blood, imaged 20 min after PMA 5 μM): complete abrogation

CC1(C)C(=CC=C2CCCC(C=CC3=[N+](CCCCS(=O)(=O)[O-])c4ccc5ccccc5c4C3(C)C)=C2Cl)N(CCCCS(=O)(=O)[O-])c2ccc3ccccc3c21.[Na+] [IRD]
stability on exposure to MPO over time (MPO [9]): loss of IRD molecular integrity over time
